# In patent US20230012368A1 (Hoffmann-La Roche Inc., priority 2018, published 2023):
# Where a name gives a salt, the structure may show the parent alone.
# Test system: Acinetobacter baumannii ATCC 17978
# Assay: Antimicrobial susceptibility testing: 90% growth inhibitory concentration (IC90) determination
# Assay type: cell-based
# Conditions: 90% growth inhibitory concentration; Acinetobacter baumannii ATCC17978; Iso-Sensitest broth, OD 600 nm over 16h; read-out: ATCC17978 IC90
# Outline: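 Compounds serially twofold diluted (e.g. 50 to 0.097 μM final) in Iso-Sensitest broth, inoculated at ~5×10^(5) CFU/ml, incubated at 35±2° C. OD600 read every 20 minutes over 16h. IC90 taken as concentration inhibiting 90% of growth during logarithmic phase.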
row,SMILES,IC90
1,"CCc1cc(Nc2nccn3c(-c4ccc(OC)c(F)c4F)cnc23)ccc1C(=O)NCCCCN [Example 514, N-(4-aminobutyl)-4-((3-(2,3-difluoro-4-methoxyphenyl)imidazo[1,2-a]pyrazin-8-yl)amino)-2-ethylbenzamide hydrochloride]",48 nM
2,"CCc1cc(Nc2nccn3c(-c4ccc(OC)c(F)c4F)cnc23)ccc1C(=O)N[C@@H](CN)c1ccccc1 [Example 321, N-[(1R)-2-amino-1-phenylethyl]-4-[[3-(2,3-difluoro-4-methoxyphenyl)imidazo[1,2-a]pyrazin-8-yl]amino]-2-ethylbenzamide; hydrochloride]",4000 nM

# Same assay, conditions: Acinetobacter baumannii, ATCC17978, 16 h, 90% growth inhibitory concentration; Acinetobacter baumannii ATCC17978; Iso-Sensitest broth, OD 600 nm over 16h; read-out: ATCC17978 IC90
row,SMILES,IC90
1,"Cc1cc(Nc2nccn3c(-c4ccc(OC(F)F)cc4)cnc23)ccc1C(=O)N(C)CC(=O)N1CCN(C)CC1 [Example 170, 4-[[3-[4-(difluoromethoxy)phenyl]im-idazo[1,2-a]pyrazin-8-yl]amino]-N,2-dimethyl-N-[2-(4-methylpiperazin-1-yl)-2-oxoethyl]benzamide]",1900 nM
2,"CCN(CC)C(=O)c1ccc(Nc2nccn3c(-c4ccc(OC)c(Cl)c4)cnc23)cc1 [Example 215, 4-[[3-(3-chloro-4-methoxyphenyl)imidazo[1,2-a]pyrazin-8-yl]amino]-N,N-diethylbenzamide]",680 nM
3,"CCc1cc(Nc2nccn3c(-c4ccc(OC(F)F)c(F)c4F)cnc23)ccc1C(=O)NCC1(CO)COC(=O)N1 (stereo not shown) [Example 409, 4-((3-(4-(difluoromethoxy)-2,3-difluorophenyl)imidazo[1,2-a]pyrazin-8-yl)amino)-2-ethyl-N-((4-(hydroxymethyl)-2-oxooxazolidin-4-yl)methyl)benzamide]",450 nM
4,"Cc1cc(Nc2nccn3c(-c4ccc(OC(F)F)cc4)cnc23)ccc1C(=O)NCC(=O)N1CCOCC1 [Example 252, 4-[[3-[4-(difluoromethoxy)phenyl]im-idazo[1,2-a]pyrazin-8-yl]amino]-2-methyl-N-(2-morpholin-4-yl-2-oxoethyl)benzamide]",2800 nM
5,"Cc1cc(Nc2nccn3c(-c4ccc(Cl)c(F)c4F)cnc23)ccc1C(=O)NCC1CCN(C)CC1 [Example 240, 4-[[3-(4-chloro-2,3-difluorophenyl)imidazo[1,2-a]pyrazin-8-yl]amino]-2-methyl-N-[(1-methylpiperidin-4-yl)methyl]benzamide]",1100 nM
6,"CCc1cc(Nc2nccn3c(-c4ccc(OC)c(F)c4F)cnc23)ccc1C(=O)NCC(O)CNC(=O)CN (stereo not shown) [Example 374, N-[3-[(2-aminoacetyl)amino]-2-hydroxypropyl]-4-[[3-(2,3-difluoro-4-methoxyphenyl)imidazo[1,2-a]pyrazin-8-yl]amino]-2-ethylbenzamide]",190 nM

# Next, values leading:
row,IC90,SMILES
1,590 nM,"Cc1cc(Nc2nccn3c(-c4ccc(OC(F)F)cc4)cnc23)ccc1C(=O)N1CCC(C(=O)NC[C@H](O)[C@@H](O)[C@H](O)[C@H](O)CO)CC1 [Example 306, 1-[4-[[3-[4-(difluoromethoxy)phenyl]im-idazo[1,2-a]pyrazin-8-yl]amino]-2-methylbenzoyl]-N-[(2S,3R,4R,5R)-2,3,4,5,6-pentahydroxyhexyl]piperidine-4-carboxamide]"
2,560 nM,"CCc1cc(Nc2nccn3c(-c4ccc(Oc5nccc(OC)n5)c(F)c4F)cnc23)ccc1C(=O)NCCN [Example 466, N-(2-aminoethyl)-4-((3-(2,3-difluoro-4-((4-methoxypyrimidin-2-yl)oxy)phenyl)imidazo[1,2-a]pyrazin-8-yl)amino)-2-ethylbenzamide]"
3,290 nM,"COc1ccc(-c2cnc3c(Nc4ccc(C(=O)N[C@@H](C)CNC(C)=N)c(C)c4)nccn23)c(F)c1F [Example 488, 4-[[3-(2,3-difluoro-4-methoxyphenyl)imidazo[1,2-a]pyrazin-8-yl]amino]-#N!- [(2#S!)-1-(ethanimidoylamino)propan-2-yl]-2-methylbenzamide;formic acid]"
4,60 nM,"CN(CCN1CCNCC1)C(=O)c1ccc(Nc2nccn3c(-c4ccc(OCC#N)c(F)c4F)cnc23)cc1Cl [Example 74, 2-chloro-4-((3-(4-(cyanomethoxy)-2,3-difluorophenyl)imidazo [1,2-a]pyrazin-8-yl)amino)-N-methyl-N-(2-(piperazin-1-yl)ethyl)benzamide]"
5,140 nM,"COc1ccc(-c2cnc3c(Nc4ccc(C(=O)N(C)CCC5CCNCC5)c(C)c4)nccn23)cc1F [Example 11, hydrochloride]"
6,220 nM,"COc1ccc(-c2cnc3c(Nc4ccc(C(=O)NCC5CCNC5)c(Cl)c4)nccn23)c(F)c1F (stereo not shown) [Example 60, 2-chloro-4-[[3-(2,3-difluoro-4-methoxy-phenyl)imidazo[1,2-a]pyrazin-8-yl]amino]-N-(pyrrolidin-3-ylmethyl)benzamide]"
7,120 nM,"CNC(=O)c1ccc(Nc2nccn3c(-c4ccc(OC)cc4)cnc23)cc1C [Example 14, 4-((3-(4-methoxyphenyl)imidazo [1,2-a]pyrazin-8-yl)amino)-N,2-dimethylbenzamide]"
8,210 nM,"CCc1cc(Nc2nccn3c(-c4ccc(OC)c(F)c4F)cnc23)ccc1C(=O)NCC(O)CO (stereo not shown) [Example 483, 4-((3-(2,3-difluoro-4-methoxyphenyl)imidazo[1,2-a]pyrazin-8-yl)amino)-N-(2,3-dihydroxypropyl)-2-ethylbenzamide]"
9,54 nM,"CCc1cc(Nc2nccn3c(-c4ccc(OC(F)F)c(F)c4F)cnc23)ccc1C(=O)NCCC(=O)N1CCNCC1 [Example 542, 4-((3-(4-(difluoromethoxy)-2,3-difluorophenyl)imidazo[1,2-a]pyrazin-8-yl)amino)-2-ethyl-N-(3-oxo-3-(piperazin-1-yl)propyl)benzamide 2,2,2-trifluoroacetate]"
10,2700 nM,"COc1ccc(-c2cnc3c(Nc4ccc(C(=O)NCC5(O)CCNC5)c(C)c4)nccn23)cc1F (stereo not shown) [Example 286, 4-[[3-(3-fluoro-4-methoxyphenyl)imidazo[1,2-a]pyrazin-8-yl]amino]-N-[(3-hydroxypyrrolidin-3-yl)methyl]-2-methylbenzamide;2,2,2-trifluoroacetic acid]"
11,270 nM,"COc1ccc(-c2cnc3c(Nc4ccc(C(=O)NCCCCN5CCOCC5)c(C)c4)nccn23)cc1F [Example 187, 4-[[3-(3-fluoro-4-methoxyphenyl)imidazo[1,2-a]pyrazin-8-yl]amino]-2-methyl-N-(4-morpholin-4-ylbutyl)benzamide]"
